# Measured values: ChEMBL document CHEMBL1146412, “Sch 54445: a new polycyclic xanthone with highly potent antifungal activity produced by Actinoplanes sp” (J Nat Prod, 1997)
# Test: Toxicity in iv dosed mouse
# Assay type: organism-based
# Conditions: in vivo
smiles,measurement,value
CCC(C)c1cc2c(Cl)c3c(c(O)c2c(=O)n1N)-c1c(O)c2c(c4c1[C@@H](C3)OCO4)O[C@H]1[C@@H](C2=O)[C@@H](O)C=C[C@H]1OC (stereo partly specified),LD50,1 mg/kg
